# Measured values published in patent publication US20250296959A1, “B7-H3 TARGETING PEPTIDES AND CONSTRUCTS THEREOF” (Mariana Oncology Inc., priority 2024, published 2025).
# Starred links: 1 amine or outer side, 2 acyl side, 3 side chain; linkers in the order of their positions; H or OH if unused. Positions of bridges follow the written chain, without caps; N, C: chain ends. Non-standard residues stand in square brackets, D forms with d. Residues, ends and D or L forms follow the SMILES beside them. Groups on a side chain read outwards from the residue. *: point of attachment. Ala(piperidin-4-yl) = O=C([C@H](CC1CCN([*:3])CC1)N[*:1])[*:2]; DOTA = O=C(O)CN1CCN(CC(=O)O)CCN(CC(=O)*)CCN(CC(=O)O)CC1; Butanoyl(4-(4-I-phenyl)) = O=C(CCCc1ccc(I)cc1)*; Phe(4-COOH) = N[C@@H](Cc1ccc(C(=O)O)cc1)C(=O)O; Trp(5-F) = N[C@@H](Cc1c[nH]c2ccc(F)cc12)C(=O)O; PEG8 = NCCOCCOCCOCCOCCOCCOCCOCCOCCC(=O)O; 1Nal = N[C@@H](Cc1cccc2ccccc12)C(=O)O; Ala(4-THP) = N[C@@H](CC1CCOCC1)C(=O)O; Val(3-OH) = CC(C)(O)[C@H](N)C(=O)O; 4Pal = N[C@@H](Cc1ccncc1)C(=O)O; PEG4 = NCCOCCOCCOCCOCCC(=O)O; Tle = CC(C)(C)[C@H](N)C(=O)O; hLeu = CC(C)CC[C@H](N)C(=O)O; Nle = CCCC[C@H](N)C(=O)O; CH2 = C([*:1])[*:2]; NEtG = CCNCC(=O)O; Sar = CNCC(=O)O
# Molecular target: T1, human 4lg B7-H3 (Homo sapiens, UniProt Q5ZPR3)
# T1 sequence (Q5ZPR3 29-534): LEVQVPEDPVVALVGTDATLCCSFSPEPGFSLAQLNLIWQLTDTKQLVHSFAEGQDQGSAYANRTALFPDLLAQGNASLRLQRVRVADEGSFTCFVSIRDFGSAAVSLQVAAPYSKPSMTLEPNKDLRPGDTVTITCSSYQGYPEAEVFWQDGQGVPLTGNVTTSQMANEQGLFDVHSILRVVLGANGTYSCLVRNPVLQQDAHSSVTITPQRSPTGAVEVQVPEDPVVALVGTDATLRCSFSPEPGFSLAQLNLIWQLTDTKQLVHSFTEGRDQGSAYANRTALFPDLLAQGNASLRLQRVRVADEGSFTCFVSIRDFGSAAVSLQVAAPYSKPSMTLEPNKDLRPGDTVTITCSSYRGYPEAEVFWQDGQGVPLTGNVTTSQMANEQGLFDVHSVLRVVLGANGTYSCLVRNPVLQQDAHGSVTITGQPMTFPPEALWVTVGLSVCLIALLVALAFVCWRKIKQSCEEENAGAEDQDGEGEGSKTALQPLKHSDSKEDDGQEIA
# Experiment: Affinity determination by surface plasmon resonance (SPR) to 4Ig B7-H3
# Conditions: SPR KD—25° C., 4Ig B7-H3; 25° C. flow cell temperature
row,SMILES,Kd [nM]
1,"CC(=O)N[C@@H](CCC(C)C)C(=O)N[C@@H](Cc1ccc(O)cc1)C(=O)N[C@H]1CSSC[C@@H](C(=O)N[C@@H](Cc2c[nH]c3ccc(F)cc23)C(=O)N[C@@H](Cc2ccccc2)C(=O)N2CCC[C@H]2C(=O)N[C@H](CCCCNC(=O)CN2CCN(CC(=O)O)CCN(CC(=O)O)CCN(CC(=O)O)CC2)C(N)=O)NC(=O)[C@H](Cc2ccc(O)cc2)NC(=O)[C@H](C(C)C)NC(=O)[C@H](CC(=O)O)NC(=O)[C@H](CC2CCOCC2)NC(=O)[C@H](CCCCN)NC(=O)CNC(=O)[C@H](C(C)C)NC1=O [compound 271, Ac-hLeu-Y-C-V-G-K-ThpA-D-V-Y-C-5FW-F-Pro-dLys(DOTA)-CONH2] (Ac-[hLeu]YCVGK[Ala(4-THP)]DVYC[Trp(5-F)]FP[dK](DOTA)-NH2; disulfide 3-11)",< 1
2,"CC(=O)N[C@@H](CCC(C)C)C(=O)N[C@@H](Cc1ccc(O)cc1)C(=O)N[C@H]1CSSC[C@@H](C(=O)N[C@@H](Cc2c[nH]c3ccc(F)cc23)C(=O)N[C@@H](Cc2ccccc2)C(=O)N[C@H](C(N)=O)C(C)(C)O)NC(=O)[C@H](Cc2ccc(O)cc2)NC(=O)[C@H](C(C)C)NC(=O)[C@H](CC(=O)O)NC(=O)[C@H](Cc2ccncc2)NC(=O)[C@H](CCCCNC(=O)CN2CCN(CC(=O)O)CCN(CC(=O)O)CCN(CC(=O)O)CC2)NC(=O)CNC(=O)[C@H](C(C)C)NC1=O [compound 229, Ac-hLeu-Y-C-V-G-Lys(DOTA)-4PyA-D-V-Y-C-5FW-F-hydroxyVal-CONH2] (Ac-[hLeu]YCVGK(DOTA)[4Pal]DVYC[Trp(5-F)]F[Val(3-OH)]-NH2; disulfide 3-11)",< 1
3,"CC(=O)N[C@@H](CCC(C)C)C(=O)N[C@@H](Cc1ccc(O)cc1)C(=O)N[C@H]1CSSC[C@@H](C(=O)N[C@@H](Cc2c[nH]c3ccccc23)C(=O)N[C@@H](Cc2ccccc2)C(=O)N[C@H](C(=O)N[C@H](CCCCNC(=O)CN2CCN(CC(=O)O)CCN(CC(=O)O)CCN(CC(=O)O)CC2)C(N)=O)[C@@H](C)O)NC(=O)[C@H](Cc2ccc(O)cc2)NC(=O)[C@H](C(C)C)NC(=O)[C@H](CC(=O)O)NC(=O)[C@H](Cc2ccc(C(=O)O)cc2)NC(=O)[C@H](CCCCN)NC(=O)CN(C)C(=O)[C@H](C(C)(C)C)NC1=O [compound 140, Ac-hLeu-Y-C-Tbg-Sar-K-4COOHPhe-D-V-Y-C-W-F-Thr-dLys(DOTA)-CONH2] (Ac-[hLeu]YC[Tle][Sar]K[Phe(4-COOH)]DVYCWFT[dK](DOTA)-NH2; disulfide 3-11)",1 to 10
4,"COc1ccc(C[C@H](NC(=O)[C@H](CCC(C)C)NC(C)=O)C(=O)N[C@H]2CSSC[C@@H](C(=O)N[C@@H](Cc3c[nH]c4ccc(F)cc34)C(=O)N[C@@H](Cc3ccccc3)C(=O)N[C@H](C(=O)N[C@H](CCCCNC(=O)CN3CCN(CC(=O)O)CCN(CC(=O)O)CCN(CC(=O)O)CC3)C(N)=O)[C@@H](C)O)NC(=O)[C@H](Cc3ccc(O)cc3)NC(=O)[C@H](C(C)C)NC(=O)[C@H](CC(=O)O)NC(=O)[C@H](Cc3ccc(O)cc3)NC(=O)[C@H](CCCCN)NC(=O)CNC(=O)[C@H](C(C)C)NC2=O)cc1 [compound 193, Ac-hLeu-OMeTyr-C-V-G-K-Y-D-V-Y-C-5FW-F-Thr-dLys(DOTA)-CONH2] (Ac-[hLeu]Y(Me)CVGKYDVYC[Trp(5-F)]FT[dK](DOTA)-NH2; disulfide 3-11)",10 to 100
5,"CC(=O)N[C@@H](CCC(C)C)C(=O)N[C@@H](Cc1ccc(O)cc1)C(=O)N[C@H]1CSSC[C@@H](C(=O)N[C@@H](Cc2c[nH]c3ccc(F)cc23)C(=O)N[C@@H](Cc2ccccc2)C(=O)N2CCC[C@H]2C(=O)N[C@H](CCCCNC(=O)CN2CCN(CC(=O)O)CCN(CC(=O)O)CCN(CC(=O)O)CC2)C(N)=O)NC(=O)[C@H](Cc2ccc(O)cc2)NC(=O)[C@H](C(C)C)NC(=O)[C@H](CC(=O)O)NC(=O)[C@H](Cc2ccc(O)cc2)NC(=O)[C@H](CCCCN)NC(=O)CNC(=O)[C@H](C(C)(C)C)NC1=O [compound 248, Ac-hLeu-Y-C-Tbg-G-K-Y-D-V-Y-C-5FW-F-Pro-dLys(DOTA)-CONH2] (Ac-[hLeu]YC[Tle]GKYDVYC[Trp(5-F)]FP[dK](DOTA)-NH2; disulfide 3-11)",1 to 10
6,"CCCC[C@H](NC(C)=O)C(=O)N[C@@H](Cc1ccc(O)cc1)C(=O)N[C@H]1CSSC[C@@H](C(=O)N[C@@H](Cc2c[nH]c3ccccc23)C(=O)N[C@@H](Cc2ccccc2)C(N)=O)NC(=O)[C@H](Cc2ccc(O)cc2)NC(=O)[C@H](C(C)C)NC(=O)[C@H](CC(=O)O)NC(=O)[C@H](Cc2ccc(O)cc2)NC(=O)[C@H](CCCCN)NC(=O)CN(CC)C(=O)[C@H](C(C)C)NC1=O [compound 52, Ac-Nle-Y-C-V-NetGly-K-Y-D-V-Y-C-W-F-CONH2] (Ac-[Nle]YCV[NEtG]KYDVYCWF-NH2; disulfide 3-11)",10 to 100

# Next, values leading:
row,Kd [nM],SMILES
1,1 to 10,"CC(=O)N[C@@H](CCC(C)C)C(=O)N[C@@H](Cc1ccc(O)cc1)C(=O)N[C@H]1CSSC[C@@H](C(=O)N[C@@H](Cc2c[nH]c3ccc(F)cc23)C(=O)N[C@@H](Cc2ccccc2)C(=O)N2CCC[C@H]2C(N)=O)NC(=O)[C@H](Cc2ccc(O)cc2)NC(=O)[C@H](C(C)C)NC(=O)[C@H](CC(=O)O)NC(=O)[C@H](CC2CCOCC2)NC(=O)[C@H](CCCCNC(=O)CN2CCN(CC(=O)O)CCN(CC(=O)O)CCN(CC(=O)O)CC2)NC(=O)CNC(=O)[C@H](C(C)C)NC1=O [compound 292, Ac-hLeu-Y-C-V-G-Lys(DOTA)-ThpA-D-V-Y-C-5FW-F-Pro-CONH2] (Ac-[hLeu]YCVGK(DOTA)[Ala(4-THP)]DVYC[Trp(5-F)]FP-NH2; disulfide 3-11)"
2,100 to 300,"CC(=O)N[C@@H](CCC(C)C)C(=O)N[C@@H](Cc1ccc(O)cc1)C(=O)N[C@H]1CSCSC[C@@H](C(=O)N[C@@H](Cc2cccc3ccccc23)C(=O)N[C@@H](Cc2ccccc2)C(=O)N2CCC[C@H]2C(N)=O)NC(=O)[C@H](Cc2ccc(O)cc2)NC(=O)[C@H](C(C)C)NC(=O)[C@H](CC(=O)O)NC(=O)[C@H](Cc2ccncc2)NC(=O)[C@H](CCCCNC(=O)CN2CCN(CC(=O)O)CCN(CC(=O)O)CCN(CC(=O)O)CC2)NC(=O)CNC(=O)[C@H](C(C)(C)C)NC1=O [compound 330, Ac-hLeu-Y-C(CH2)-Tbg-G-Lys(DOTA)-4PyA-D-V-Y-C-1Nal-F-Pro-CONH2] (Ac-[hLeu]YC[Tle]GK(DOTA)[4Pal]DVYC[1Nal]FP-NH2; linker 3-11 via CH2)"

# Same assay, conditions: SPR KD—37° C., 4Ig B7-H3; 37° C. flow cell temperature
row,Kd [nM],SMILES
1,1 to 10,"CC(=O)N[C@@H](CCC(C)C)C(=O)N[C@@H](Cc1ccc(O)cc1)C(=O)N[C@H]1CSSC[C@@H](C(=O)N[C@@H](Cc2c[nH]c3ccc(F)cc23)C(=O)N[C@@H](Cc2ccccc2)C(=O)N[C@H](C(N)=O)C(C)(C)O)NC(=O)[C@H](Cc2ccc(O)cc2)NC(=O)[C@H](C(C)C)NC(=O)[C@H](CC(=O)O)NC(=O)[C@H](CC2CCOCC2)NC(=O)[C@H](CC2CCN(C(=O)CCOCCOCCOCCOCCNC(=O)CN3CCN(CC(=O)O)CCN(CC(=O)O)CCN(CC(=O)O)CC3)CC2)NC(=O)CNC(=O)[C@H](C(C)(C)C)NC1=O [compound 382, Ac-hLeu-Y-C-Tbg-G-Pip(PEG4-DOTA)Ala-ThpA-D-V-Y-C-5FW-F-hydroxyVal-CONH2] (Ac-[hLeu]YC[Tle]G[Ala(piperidin-4-yl)]([PEG4-DOTA])[Ala(4-THP)]DVYC[Trp(5-F)]F[Val(3-OH)]-NH2; disulfide 3-11)"
2,10 to 100,"CC(C)CC[C@H](NC(=O)CCOCCOCCOCCOCCOCCOCCOCCOCCNC(=O)CCCc1ccc(I)cc1)C(=O)N[C@@H](Cc1ccc(O)cc1)C(=O)N[C@H]1CSSC[C@@H](C(=O)N[C@@H](Cc2c[nH]c3ccc(F)cc23)C(=O)N[C@@H](Cc2ccccc2)C(=O)N[C@H](C(=O)N[C@H](CCCCNC(=O)CN2CCN(CC(=O)O)CCN(CC(=O)O)CCN(CC(=O)O)CC2)C(=O)O)C(C)(C)O)NC(=O)[C@H](Cc2ccc(O)cc2)NC(=O)[C@H](C(C)C)NC(=O)[C@H](CC(=O)O)NC(=O)[C@H](CC2CCOCC2)NC(=O)[C@H](CCCCN)NC(=O)CNC(=O)[C@H](C(C)(C)C)NC1=O [compound 365, AB-PEG8-hLeu-Y-C-Tbg-G-K-ThpA-D-V-Y-C-5FW-F-hydroxyVal-dLys(DOTA)-COOH] ({Butanoyl(4-(4-I-phenyl))-PEG8}-[hLeu]YC[Tle]GK[Ala(4-THP)]DVYC[Trp(5-F)]F[Val(3-OH)][dK](DOTA)-OH; disulfide 3-11)"
3,10 to 100,"CC(=O)N[C@@H](CCC(C)C)C(=O)N[C@@H](Cc1ccc(O)cc1)C(=O)N[C@H]1CSSC[C@@H](C(=O)N[C@@H](Cc2c[nH]c3ccc(F)cc23)C(=O)N[C@@H](Cc2ccccc2)C(=O)N[C@H](C(=O)O)C(C)(C)O)NC(=O)[C@H](Cc2ccc(O)cc2)NC(=O)[C@H](C(C)C)NC(=O)[C@H](CC(=O)O)NC(=O)[C@H](Cc2ccc(C(=O)O)cc2)NC(=O)[C@H](CCCCNC(=O)CN2CCN(CC(=O)O)CCN(CC(=O)O)CCN(CC(=O)O)CC2)NC(=O)CNC(=O)[C@H](C(C)C)NC1=O [compound 325, Ac-hLeu-Y-C-V-G-Lys(DOTA)-4COOHPhe-D-V-Y-C-5FW-F-hydroxyVal-COOH] (Ac-[hLeu]YCVGK(DOTA)[Phe(4-COOH)]DVYC[Trp(5-F)]F[Val(3-OH)]-OH; disulfide 3-11)"
